Data published in the supplement of paper PMC10307832.

Experiments:
Test in all cases: relative viability (nuclei count vs DMSO), 5 days (fraction); higher = more cells survive
Dabrafenib + Pemetrexed = compound: CC(C)(C)c1nc(-c2cccc(NS(=O)(=O)c3c(F)cccc3F)c2F)c(-c2ccnc(N)n2)s1 [Dabrafenib] + Nc1nc2[nH]cc(CCc3ccc(C(=O)N[C@@H](CCC(=O)O)C(=O)O)cc3)c2c(=O)[nH]1 [Pemetrexed] (partner 0.2 µM)
Outline: (§1)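 Nuclei were stained with Hoechst during a one-step fixation (final 0.05% Triton X-100, 1% formaldehyde, 1 ug/ml Hoechst) carried out 5 days after dosing, then counted on 4× images. The cells, lung cancer lines in 1536-well plates, had been dosed by pin tool the day after seeding with one drug alone or a fixed anchor-drug dose plus five library-drug doses (not always all listed) in √10 steps. Relative viability is the nuclei count in treated wells divided by that in vehicle wells, and each value is the median of duplicate plates.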

VX-702 + OSI-027 = compound: NC(=O)c1ccc(N(C(N)=O)c2c(F)cccc2F)nc1-c1ccc(F)cc1F [VX-702] + COc1cccc2cc(-c3nc([C@H]4CC[C@H](C(=O)O)CC4)n4ncnc(N)c34)[nH]c12 [OSI-027] (partner 0.5 µM)
Outline: as §1

VX-702 + Olaparib = compound: NC(=O)c1ccc(N(C(N)=O)c2c(F)cccc2F)nc1-c1ccc(F)cc1F [VX-702] + O=C(c1cc(Cc2n[nH]c(=O)c3ccccc23)ccc1F)N1CCN(C(=O)C2CC2)CC1 [Olaparib] (partner 8 µM)
Outline: as §1

VX-702 + Decitabine = compound: NC(=O)c1ccc(N(C(N)=O)c2c(F)cccc2F)nc1-c1ccc(F)cc1F [VX-702] + Nc1ncn([C@H]2C[C@H](O)[C@@H](CO)O2)c(=O)n1 [Decitabine] (partner 2 µM)
Outline: as §1

Row | Cell Line | relative viability (Dabrafenib + Pemetrexed; first compound 0.009487 µM) | relative viability (Dabrafenib + Pemetrexed; first compound 0.03 µM) | relative viability (Dabrafenib + Pemetrexed; first compound 0.09487 µM) | relative viability (Dabrafenib + Pemetrexed; first compound 0.3 µM) | relative viability (VX-702 + OSI-027; first compound 0.02 µM) | relative viability (VX-702 + OSI-027; first compound 0.6325 µM) | relative viability (VX-702 + OSI-027; first compound 2 µM) | relative viability (VX-702 + Olaparib; first compound 0.02 µM) | relative viability (VX-702 + Olaparib; first compound 0.2 µM) | relative viability (VX-702 + Olaparib; first compound 0.6325 µM) | relative viability (VX-702 + Olaparib; first compound 2 µM) | relative viability (VX-702 + Decitabine; first compound 0.02 µM) | relative viability (VX-702 + Decitabine; first compound 0.2 µM) | relative viability (VX-702 + Decitabine; first compound 0.6325 µM) | relative viability (VX-702 + Decitabine; first compound 2 µM) | relative viability (Dabrafenib + Pemetrexed; first compound 0.003 µM) | relative viability (VX-702 + OSI-027; first compound 0.2 µM)
1 | NCI-H650 | 0.938 | 0.846 | 0.522 | 0.464 | 0.562 | 0.567 | 0.595 | 0.435 | 0.433 | 0.452 | 0.456 | 0.385 | 0.344 | 0.3 | 0.324 | – | –
2 | NCI-H661 | 0.934 | 0.876 | 0.931 | 0.933 | 0.708 | 0.748 | 0.893 | 0.752 | 0.73 | 0.756 | 0.798 | 0.567 | 0.583 | 0.58 | 0.591 | 0.942 | 0.702
3 | NCI-H838 | 0.252 | 0.239 | 0.239 | 0.245 | 0.394 | 0.448 | 0.409 | 0.772 | 0.715 | 0.827 | 0.926 | 0.455 | 0.471 | 0.429 | 0.534 | 0.264 | 0.356
4 | NCI-H1355 | 1.09 | 0.965 | 0.804 | 1.08 | 0.419 | 0.371 | 0.405 | 0.752 | 0.729 | 0.785 | 0.876 | 0.348 | 0.33 | 0.366 | 0.318 | – | 0.427
5 | NCI-H1395 | 0.813 | 0.907 | 0.749 | 0.806 | 0.725 | 0.663 | 0.677 | 0.447 | 0.46 | 0.502 | 0.448 | 0.664 | 0.714 | 0.728 | 0.64 | – | 0.642
6 | NCI-H1437 | 0.304 | 0.318 | 0.324 | 0.321 | 0.885 | 0.977 | 0.987 | 0.656 | 0.633 | 0.643 | 0.691 | 0.618 | 0.516 | 0.544 | 0.607 | 0.338 | 0.843
7 | NCI-H1648 | 0.781 | – | 0.654 | 0.738 | 0.278 | 0.251 | 0.253 | 0.817 | 0.851 | 0.689 | 0.781 | 0.443 | 0.457 | 0.469 | 0.481 | 0.746 | 0.275
8 | NCI-H1650 | 0.391 | 0.389 | 0.389 | 0.419 | 0.635 | 0.806 | 0.541 | 0.78 | 0.813 | 0.806 | 1.16 | 0.477 | 0.422 | 0.44 | 0.46 | 0.364 | 0.652
9 | NCI-H1651 | 0.555 | 0.525 | 0.416 | 0.613 | 0.733 | 0.786 | 0.652 | 0.178 | 0.174 | 0.183 | 0.151 | 0.571 | 0.573 | 0.649 | 0.615 | 0.575 | 0.685
